# Reference: patent US20260317308A1, “A SEQUENCE SELECTIVE DNA BINDING MOLECULE (SYNGRADER)” (ST. JUDE CHILDREN'S RESEARCH HOSPITAL, INC., priority 2023, published 2026)
# What was measured:
# [1] = system: NALM6 (N6) Acute Lymphoblastic Leukemia (ALL) B cells expressing TCF3-PBX1-HaloTag; experiment: Cell viability assay (CellTiterGlo) in NALM6 ALL cells with Doxycycline-inducible TCF3-PBX1-HaloTag, co-transfected with P2RY10 and CMV luciferase reporter plasmids; format: cell-based; conditions: for loss in cell viability: loaded on WT TR DNA-Aptamer, vs DMSO no DOX
# Procedure: The N6-TCF3-PBX1-HaloTag cells were Nucleofected (Lonza) with P2RY10-Luciferase and CMV promoter Luciferase reporter plasmid DNAs. After 24 hours, cells were treated with either wildtype (WT) or Mutant (MT) Transferrin Receptor (TR) WGGWWW DNA-Aptamers pre-loaded with PBX-SynTEF-FL (SnTF-FL), SynTEF-PBX-DRG1 (DRG1), and SynTEF-PBX-DRG2 (DRG2). The WT and MT DNA-Aptamers contain WGGWWW tail duplex DNA sequences that bind the PBX-SynTEF payloads, but only WT DNA-Aptamers can bind to TR present on the cell surface of NALM6 ALL cells, resulting in TR-mediated cellular internalization of the polyamide compounds. The MT DNA-Aptamer, has a GG to AA dinucleotide substitution which prevents binding to the TR (*see Cheng et al, 2022). Thus, cells treated with the MT DNA-Aptamer-SynTEF complexes serve as negative controls, since without a functional Aptamer, it is unlikely that the polyamides are taken up by the NALM6 cells. Doxycycline (DOX) was added at 0.1 ug/mL concentration to induce TCF3-PBX1-HaloTag expression, and 48 hours after DOX addition, cell viability was measured using CellTiterGlo reagent (Promega) which detects ATP present only in live cells. CellTiterGlo activity was calculated as Fold Change compared to “DMSO no DOX” treated cells which had the highest cell viability (dark blue bars). Error bars: Standard deviation. N>6 biological replicates.
# TCF3-PBX1-HaloTag = experiment: P2RY10 luciferase reporter assay in HEK293T cells expressing Doxycycline-inducible TCF3-PBX1-HaloTag; format: cell-based, human
# Procedure: Cells were transfected with P2RY10-Luciferase reporter plasmid DNA which contains the 282 bp P2RY10 promoter sequence cloned downstream of a minimal TATA box promoter. After 24 hours, the cells were treated with 0.70 and 1.0 μM PBX-SynTEF2 (SnTF2), SynTEF-PBX-DRG1 (DRG1), and SynTEF-PBX-DRG2 (DRG2). The SynTEF-PBX-DRG1 compound carries the Thalidomide ligand for recruitment of the Cerbelon E3-Ligase, and SynTEF-PBX-DRG2 has a VHL ligand for the recruitment of the VHL E3-Ligase. Doxycycline (DOX) was added at 0.1 ug/mL concentration to induce TCF3-PBX1-HaloTag expression, and 48 hours after DOX addition, NanoGlo Luciferase expression (Promega) was measured in the medium (Luciferase protein is secreted by the cells). Luciferase activity was calculated as Fold Change compared to “DMSO without DOX” control cells (purple bar), Error bars: Standard deviation. N>6 biological replicates.
smiles,measurement,setting,value
CSCCC(NC(=O)C(Cc1c[nH]c2ccccc12)NC(=O)C1CCCN1C(=O)C(Cc1ccc(O)cc1)NC(=O)C(Cc1ccccc1)NC(C)=O)C(=O)NC(CCCCNC(=O)CCOCCOCCOCCOCCOc1cccc2c1C(=O)N(C1CCC(=O)NC1=O)C2=O)C(=O)NCC(=O)NCCOCCOCCOCCC(=O)NCCCN(C)CCCNC(=O)CCNC(=O)c1cc(NC(=O)c2cc(NC(=O)c3cc(NC(=O)c4cc(NC(=O)CCCNC(=O)c5cc(NC(=O)c6cc(NC(=O)c7nc(NC(=O)c8nccn8C)cn7C)cn6C)cn5C)cn4C)cn3C)cn2C)cn1C (stereo not drawn) [SynTEF-PBX-DRG1],toxicity to the cells (in words),"[1]; NALM6 cells, without DOX",toxic to the cells but only when internalized
same,loss in cell viability,"[1]; with DOX 0.1 ug/mL, 48 h",~ 85%
same,cell viability compared to +DOX DMSO and +DOX SynTF-FL cells (in words),"[1]; with DOX, loaded on MT DNA-Aptamer (negative control)",comparable viability
same,loss in cell viability,"[1]; without DOX, both P2RY10 and CMV nucleofected cells",70-80%
same,further increase of Luciferase expression above DMSO plus DOX baseline (in words),"TCF3-PBX1-HaloTag; both 0.70 and 1.0 μM, with DOX",fail to further increase Luciferase expression
same,activity of the oncogenic TCF3-PBX1 fusion in cell-based reporters (in words),TCF3-PBX1-HaloTag; cell-based reporters,reduced activity
